Results published in EP4473961A1, “ORAL SOLID PHARMACEUTICAL FORMULATION COMPRISING METHADONE/LEVOMETHADONE AND OPTIONALLY NALOXONE” (L. MOLTENI & C. DEI FRATELLI ALITTI SOCIETA' DI ESERCIZIO …, priority 2023, dated 2024).

Tested on: crisis of withdrawal from morphine
Conditions: rat, in vivo

CCC(=O)C(CC(C)N(C)C)(c1ccccc1)c1ccccc1 (centres unmarked) [methadone]
effect on withdrawal symptoms: significantly reduced the symptoms | values of the scores relative to the group treated with morphine alone: about 50%
